Reference: US20260240976A1, “T[…] VACCINES BASED ON VALIDATED TARGET EPITOPES” (Deutsches Krebsforschungszentrum Stiftung des öffentlichen …, priority 2023, published 2026)

Tested on: short-term antigen-specific T cell lines generated from PBMCs
Assay: Interferon-γ ELISpot assay on short-term antigen-specific T cell lines; for ELISpot: Immungenicity of the peptide shown by IFN-gamma ELISPOT analysis: key: +: ELISPOT: Immungenicity of the peptide shown by IFN-gamma ELISPOT analysis; +*: *highlights data from published resources; *highlights data from published resources
Type: cell-based, human
Conditions: for rates of immunoactivation in PBMC samples, CD8 T cell responses and/or numbers of HPV16 positive cell lines presenting the peptide as HLA-complexes: comparison among the peptides in Table 1

Substance: 125 (SKISEYRHY; Human papillomavirus 16) [compound 125]
- ELISpot: Immungenicity of the peptide shown by IFN-gamma ELISPOT analysis (HLA restriction B15): +

Substance: 145 (KISEYRHY; Human papillomavirus 16) [compound 145]
- ELISpot: Immungenicity of the peptide shown by IFN-gamma ELISPOT analysis (HLA restriction B15): +

Substance: 146 (RGRWTGRCM; Human papillomavirus 16) [compound 146]
- ELISpot: Immungenicity of the peptide shown by IFN-gamma ELISPOT analysis (HLA restriction B15): +

Substance: 70 (KCLKFYSKI; Human papillomavirus 16) [compound 70]
- ELISpot: Immungenicity of the peptide shown by IFN-gamma ELISPOT analysis (HLA restriction A03): +

Substance: 118 (LLRREVYDFAF; Human papillomavirus 16) [compound 118]
- ELISpot: Immungenicity of the peptide shown by IFN-gamma ELISPOT analysis (HLA restriction B15): +

Substance: 143 (LPQLCTELQT; Human papillomavirus 16) [compound 143]
- ELISpot: Immungenicity of the peptide shown by IFN-gamma ELISPOT analysis (HLA restriction B07): +

Substance: 8 (SKISEYRHYCY; Human papillomavirus 16) [compound 8]
- ELISpot: Immungenicity of the peptide shown by IFN-gamma ELISPOT analysis (HLA restriction A01): +

Substance: 131 (GQAEPDRAH; Human papillomavirus 16) [compound 131]
- ELISpot: Immungenicity of the peptide shown by IFN-gamma ELISPOT analysis (HLA restriction B15): +

Substance: 127 (QQYNKPLCDL; Human papillomavirus 16) [compound 127]
- ELISpot: Immungenicity of the peptide shown by IFN-gamma ELISPOT analysis (HLA restriction B15): +

Substance: 120 (IVYRDGNPYAV; Human papillomavirus 16) [compound 120]
- ELISpot: Immungenicity of the peptide shown by IFN-gamma ELISPOT analysis (HLA restriction B15): +

Substance: 98 (TPTLHEYML; Human papillomavirus 16) [compound 98]
- rates of immunoactivation in PBMC samples, CD8 T cell responses and/or numbers of HPV16 positive cell lines presenting the peptide as HLA-complexes: highest rates of immunoactivation in PBMC samples, to induce the strongest CD8 T cell responses, and/or shown to be presented as HLA-complexes by the highest numbers of HPV16 positive cell lines

Substance: 11 (TIHDIILECV; Human papillomavirus 16) [compound 11]
- rates of immunoactivation in PBMC samples, CD8 T cell responses and/or numbers of HPV16 positive cell lines presenting the peptide as HLA-complexes: highest rates of immunoactivation in PBMC samples, to induce the strongest CD8 T cell responses, and/or shown to be presented as HLA-complexes by the highest numbers of HPV16 positive cell lines

Substance: 69 (AVCDKCLK; Human papillomavirus 16) [compound 69]
- ELISpot: Immungenicity of the peptide shown by IFN-gamma ELISPOT analysis (HLA restriction A03): +

Substance: 72 (KFYSKISEYR; Human papillomavirus 16) [compound 72]
- ELISpot: Immungenicity of the peptide shown by IFN-gamma ELISPOT analysis (HLA restriction A03): +

Substance: 18 (RTLEDLLMGT; Human papillomavirus 16) [compound 18]
- rates of immunoactivation in PBMC samples, CD8 T cell responses and/or numbers of HPV16 positive cell lines presenting the peptide as HLA-complexes: highest rates of immunoactivation in PBMC samples, to induce the strongest CD8 T cell responses, and/or shown to be presented as HLA-complexes by the highest numbers of HPV16 positive cell lines

Substance: 104 (RPRKLPQLCT; Human papillomavirus 16) [compound 104]
- ELISpot: Immungenicity of the peptide shown by IFN-gamma ELISPOT analysis (HLA restriction B07): +

Substance: 106 (RCMSCCRSSR; Human papillomavirus 16) [compound 106]
- ELISpot: Immungenicity of the peptide shown by IFN-gamma ELISPOT analysis (HLA restriction B07): +

Substance: 10 (ETTDLYCY; Human papillomavirus 16) [compound 10]
- ELISpot: Immungenicity of the peptide shown by IFN-gamma ELISPOT analysis (HLA restriction A01): +

Substance: 94 (HLDKKQRFHNI; Human papillomavirus 16) [compound 94]
- ELISpot: Immungenicity of the peptide shown by IFN-gamma ELISPOT analysis (HLA restriction A24): +

Substance: 47 (KLPQLCTELQT; Human papillomavirus 16) [compound 47]
- ELISpot: Immungenicity of the peptide shown by IFN-gamma ELISPOT analysis (HLA restriction A02): +

Substance: 95 (DKKQRFHN; Human papillomavirus 16) [compound 95]
- ELISpot: Immungenicity of the peptide shown by IFN-gamma ELISPOT analysis (HLA restriction A24): +

Substance: 138 (HYNIVTFC; Human papillomavirus 16) [compound 138]
- ELISpot: Immungenicity of the peptide shown by IFN-gamma ELISPOT analysis (HLA restriction A24): +

Substance: 76 (LIRCINCQK; Human papillomavirus 16) [compound 76]
- ELISpot: Immungenicity of the peptide shown by IFN-gamma ELISPOT analysis (HLA restriction A03): +

Substance: 129 (KQRHLDKKQRF; Human papillomavirus 16) [compound 129]
- ELISpot: Immungenicity of the peptide shown by IFN-gamma ELISPOT analysis (HLA restriction B15): +

Substance: 53 (CVYCKQQLLR; Human papillomavirus 16) [compound 53]
- ELISpot: Immungenicity of the peptide shown by IFN-gamma ELISPOT analysis (HLA restriction A03): +
- rates of immunoactivation in PBMC samples, CD8 T cell responses and/or numbers of HPV16 positive cell lines presenting the peptide as HLA-complexes: highest rates of immunoactivation in PBMC samples, to induce the strongest CD8 T cell responses, and/or shown to be presented as HLA-complexes by the highest numbers of HPV16 positive cell lines

Substance: 78 (KQRFHNIRGR; Human papillomavirus 16) [compound 78]
- ELISpot: Immungenicity of the peptide shown by IFN-gamma ELISPOT analysis (HLA restriction A03): +

Substance: 2 (HGDTPTLHEY; Human papillomavirus 16) [compound 2]
- rates of immunoactivation in PBMC samples, CD8 T cell responses and/or numbers of HPV16 positive cell lines presenting the peptide as HLA-complexes: highest rates of immunoactivation in PBMC samples, to induce the strongest CD8 T cell responses, and/or shown to be presented as HLA-complexes by the highest numbers of HPV16 positive cell lines

Substance: 133 (SEYRHYCY; Human papillomavirus 16) [compound 133]
- ELISpot: Immungenicity of the peptide shown by IFN-gamma ELISPOT analysis (HLA restriction A01): +

Substance: 124 (YSKISEYRHY; Human papillomavirus 16) [compound 124]
- ELISpot: Immungenicity of the peptide shown by IFN-gamma ELISPOT analysis (HLA restriction B15): +

Substance: 119 (LRREVYDFAF; Human papillomavirus 16) [compound 119]
- ELISpot: Immungenicity of the peptide shown by IFN-gamma ELISPOT analysis (HLA restriction B15): +

Substance: 130 (KQRFHNIRGRW; Human papillomavirus 16) [compound 130]
- ELISpot: Immungenicity of the peptide shown by IFN-gamma ELISPOT analysis (HLA restriction B15): +

Substance: 132 (TTDLYCYEQL; Human papillomavirus 16) [compound 132]
- ELISpot: Immungenicity of the peptide shown by IFN-gamma ELISPOT analysis (HLA restriction A01): +

Substance: 80 (VYCKQQLL; Human papillomavirus 16) [compound 80]
- rates of immunoactivation in PBMC samples, CD8 T cell responses and/or numbers of HPV16 positive cell lines presenting the peptide as HLA-complexes: highest rates of immunoactivation in PBMC samples, to induce the strongest CD8 T cell responses, and/or shown to be presented as HLA-complexes by the highest numbers of HPV16 positive cell lines

Substance: 142 (CPDEKQRHL; Human papillomavirus 16) [compound 142]
- ELISpot: Immungenicity of the peptide shown by IFN-gamma ELISPOT analysis (HLA restriction B07): +

Substance: 54 (TTLEQQYNK; Human papillomavirus 16) [compound 54]
- ELISpot: Immungenicity of the peptide shown by IFN-gamma ELISPOT analysis (HLA restriction A03): +
- rates of immunoactivation in PBMC samples, CD8 T cell responses and/or numbers of HPV16 positive cell lines presenting the peptide as HLA-complexes: highest rates of immunoactivation in PBMC samples, to induce the strongest CD8 T cell responses, and/or shown to be presented as HLA-complexes by the highest numbers of HPV16 positive cell lines

Substance: 128 (CQKPLCPEE; Human papillomavirus 16) [compound 128]
- ELISpot: Immungenicity of the peptide shown by IFN-gamma ELISPOT analysis (HLA restriction B15): +

Substance: 67 (MFQDPQERPRK; Human papillomavirus 16) [compound 67]
- ELISpot: Immungenicity of the peptide shown by IFN-gamma ELISPOT analysis (HLA restriction A03): +

Substance: 51 (TLHEYMLDLQP; Human papillomavirus 16) [compound 51]
- ELISpot: Immungenicity of the peptide shown by IFN-gamma ELISPOT analysis (HLA restriction A02): +

Substance: 134 (IHEIILECVY; Human papillomavirus 16) [compound 134]
- ELISpot: Immungenicity of the peptide shown by IFN-gamma ELISPOT analysis (HLA restriction A01): +

Substance: 77 (RCINCQKPLCP; Human papillomavirus 16) [compound 77]
- ELISpot: Immungenicity of the peptide shown by IFN-gamma ELISPOT analysis (HLA restriction A03): +

Substance: 79 (LGIVCPICSQK; Human papillomavirus 16) [compound 79]
- ELISpot: Immungenicity of the peptide shown by IFN-gamma ELISPOT analysis (HLA restriction A11): +

Substance: 12 (TLHEYMLDL; Human papillomavirus 16) [compound 12]
- ELISpot: Immungenicity of the peptide shown by IFN-gamma ELISPOT analysis (HLA restriction B15): +

Substance: 122 (CLKFYSKISEY; Human papillomavirus 16) [compound 122]
- ELISpot: Immungenicity of the peptide shown by IFN-gamma ELISPOT analysis (HLA restriction B15): +

Substance: 68 (YAVCDKCLKFY; Human papillomavirus 16) [compound 68]
- ELISpot: Immungenicity of the peptide shown by IFN-gamma ELISPOT analysis (HLA restriction A11): +
